Measurements published in patent US4028351A, “Method for the preparation of derivatives of spiro (4,5)-decane and derivatives thus obtained” (Buskine S.A., priority 1971, dated 1977).

Tests used:
[1] = tested on: Acetylcholine broncho-spasm; assay: Broncho-spasm antagonist activity (Konzett and Roessler technique), acetylcholine; format: in vivo, guinea pigs; settings: Cavia porcellus, iv, guinea pig, i.v., read-out: Broncho-spasm 50% approx. inhibiting dose, Acetylcholine
Procedure: (§1) c) the experiments on the antagonist activity against the bronochospasm
(§2) were carried out on guinea pigs, according to the technique taught by
(§3) Konzett and Roessler (Arch. Exper. Pathol. Pharm., 71, (1940), 195).

[2] = tested on: kaolin induced oedema; assay: Kaolin induced oedema (rat), anti-inflammatory activity; format: in vivo, Wistar rat
Text: b) the data of anti-inflammatory activity are expressed as the volume
variation of the kaolin induced oedema in the Wistar rat;

[3] = LD50 (rat) i.p.; settings: in vivo, ip
[4] = tested on: Histamine broncho-spasm; assay: Broncho-spasm antagonist activity (Konzett and Roessler technique), histamine; format: in vivo, guinea pigs; settings: Cavia porcellus, iv, guinea pig, i.v., read-out: Broncho-spasm 50% approx. inhibiting dose, Histamine
Procedure: as §1, §2, §3

[5] = tested on: Serotonine broncho-spasm; assay: Broncho-spasm antagonist activity (Konzett and Roessler technique), serotonine; format: in vivo, guinea pigs; settings: Cavia porcellus, iv, guinea pig, i.v., read-out: Broncho-spasm 50% approx. inhibiting dose, Serotonine
Procedure: as §1, §2, §3

[6] = Heated plate test (mouse), analgesic activity; format: in vivo
Text: a) the data of analgesic activity are expressed as the variation % of the
stimulation threshold in the mouse;

[7] = total dose 310 mg/kg per os (48 hours)
[8] = total dose 440 mg/kg per os (48 hours)

Compound	ED50 [1] [mg/kg]	Kaolin induced oedema, volume variation % ([2]; total dose 70 mg/kg per os (48 hours)) [%]	LD50 [3] [mg/kg]	ED50 [4] [mg/kg]	ED50 [5] [mg/kg]	Heated plate test, % increase of threshold value ([6]; 10 mg/kg i.p.) [%]	Kaolin induced oedema, volume variation % [2, 7] [%]	Heated plate test, % increase of threshold value ([6]; 40 mg/kg i.p.) [%]	Kaolin induced oedema, volume variation % ([2]; total dose 190 mg/kg per os (48 hours)) [%]	Heated plate test, % increase of threshold value ([6]; 25 mg/kg i.p.) [%]	Kaolin induced oedema, volume variation % ([2]; total dose 340 mg/kg per os (48 hours)) [%]	Heated plate test, % increase of threshold value ([6]; 100 mg/kg i.p.) [%]	Heated plate test, % increase of threshold value ([6]; 50 mg/kg i.p.) [%]	Kaolin induced oedema, volume variation % [2, 8] [%]
O=C1NCC2(CCN(CCc3ccc(F)cc3)CC2)O1	2	19.4	282	0.2	0.5	41.7	–	–	–	–	–	–	–	–
O=C1NCC2(CCN(CCc3ccc4c(c3)OCO4)CC2)O1	> 2.5	–	235	0.2	> 2.5	–	39.5	80	–	–	–	–	–	–
O=C1NCC2(CCN(CCc3ccccc3)CC2)O1	2	–	230	0.5	0.2	–	–	–	16.1	63.4	–	–	–	–
O=C1NCC2(CCN(Cc3ccccc3)CC2)O1	> 0.5	–	319	> 0.5	> 0.5	–	–	–	–	–	9.4	93	–	–
O=C1NCC2(CCN(CCc3cccc(C(F)(F)F)c3)CC2)O1	> 0.5	–	344	0.5	> 0.5	–	10	–	–	–	–	–	45.6	–
O=C1NCC2(CCN(CCOc3ccccc3)CC2)O1	> 0.5	–	344	> 0.5	> 0.5	–	–	–	–	–	–	49	–	26.3
O=C1NCC2(CCN(C(c3ccccc3)c3ccccc3)CC2)O1	> 0.5	–	346	> 0.5	> 0.5	–	–	–	–	–	–	119	–	4.6
